Experimental findings from patent publication US9006450B2 (Boehringer Ingelheim International GmbH, priority 2010, dated 2015) are described below.

For this assay, the target named is T1, human ACC2 (Homo sapiens, UniProt O00763).
T1 construct: made in house; host or cells: insect cells (baculoviral expression system)
T1 sequence (O00763 129-2458 limits assumed): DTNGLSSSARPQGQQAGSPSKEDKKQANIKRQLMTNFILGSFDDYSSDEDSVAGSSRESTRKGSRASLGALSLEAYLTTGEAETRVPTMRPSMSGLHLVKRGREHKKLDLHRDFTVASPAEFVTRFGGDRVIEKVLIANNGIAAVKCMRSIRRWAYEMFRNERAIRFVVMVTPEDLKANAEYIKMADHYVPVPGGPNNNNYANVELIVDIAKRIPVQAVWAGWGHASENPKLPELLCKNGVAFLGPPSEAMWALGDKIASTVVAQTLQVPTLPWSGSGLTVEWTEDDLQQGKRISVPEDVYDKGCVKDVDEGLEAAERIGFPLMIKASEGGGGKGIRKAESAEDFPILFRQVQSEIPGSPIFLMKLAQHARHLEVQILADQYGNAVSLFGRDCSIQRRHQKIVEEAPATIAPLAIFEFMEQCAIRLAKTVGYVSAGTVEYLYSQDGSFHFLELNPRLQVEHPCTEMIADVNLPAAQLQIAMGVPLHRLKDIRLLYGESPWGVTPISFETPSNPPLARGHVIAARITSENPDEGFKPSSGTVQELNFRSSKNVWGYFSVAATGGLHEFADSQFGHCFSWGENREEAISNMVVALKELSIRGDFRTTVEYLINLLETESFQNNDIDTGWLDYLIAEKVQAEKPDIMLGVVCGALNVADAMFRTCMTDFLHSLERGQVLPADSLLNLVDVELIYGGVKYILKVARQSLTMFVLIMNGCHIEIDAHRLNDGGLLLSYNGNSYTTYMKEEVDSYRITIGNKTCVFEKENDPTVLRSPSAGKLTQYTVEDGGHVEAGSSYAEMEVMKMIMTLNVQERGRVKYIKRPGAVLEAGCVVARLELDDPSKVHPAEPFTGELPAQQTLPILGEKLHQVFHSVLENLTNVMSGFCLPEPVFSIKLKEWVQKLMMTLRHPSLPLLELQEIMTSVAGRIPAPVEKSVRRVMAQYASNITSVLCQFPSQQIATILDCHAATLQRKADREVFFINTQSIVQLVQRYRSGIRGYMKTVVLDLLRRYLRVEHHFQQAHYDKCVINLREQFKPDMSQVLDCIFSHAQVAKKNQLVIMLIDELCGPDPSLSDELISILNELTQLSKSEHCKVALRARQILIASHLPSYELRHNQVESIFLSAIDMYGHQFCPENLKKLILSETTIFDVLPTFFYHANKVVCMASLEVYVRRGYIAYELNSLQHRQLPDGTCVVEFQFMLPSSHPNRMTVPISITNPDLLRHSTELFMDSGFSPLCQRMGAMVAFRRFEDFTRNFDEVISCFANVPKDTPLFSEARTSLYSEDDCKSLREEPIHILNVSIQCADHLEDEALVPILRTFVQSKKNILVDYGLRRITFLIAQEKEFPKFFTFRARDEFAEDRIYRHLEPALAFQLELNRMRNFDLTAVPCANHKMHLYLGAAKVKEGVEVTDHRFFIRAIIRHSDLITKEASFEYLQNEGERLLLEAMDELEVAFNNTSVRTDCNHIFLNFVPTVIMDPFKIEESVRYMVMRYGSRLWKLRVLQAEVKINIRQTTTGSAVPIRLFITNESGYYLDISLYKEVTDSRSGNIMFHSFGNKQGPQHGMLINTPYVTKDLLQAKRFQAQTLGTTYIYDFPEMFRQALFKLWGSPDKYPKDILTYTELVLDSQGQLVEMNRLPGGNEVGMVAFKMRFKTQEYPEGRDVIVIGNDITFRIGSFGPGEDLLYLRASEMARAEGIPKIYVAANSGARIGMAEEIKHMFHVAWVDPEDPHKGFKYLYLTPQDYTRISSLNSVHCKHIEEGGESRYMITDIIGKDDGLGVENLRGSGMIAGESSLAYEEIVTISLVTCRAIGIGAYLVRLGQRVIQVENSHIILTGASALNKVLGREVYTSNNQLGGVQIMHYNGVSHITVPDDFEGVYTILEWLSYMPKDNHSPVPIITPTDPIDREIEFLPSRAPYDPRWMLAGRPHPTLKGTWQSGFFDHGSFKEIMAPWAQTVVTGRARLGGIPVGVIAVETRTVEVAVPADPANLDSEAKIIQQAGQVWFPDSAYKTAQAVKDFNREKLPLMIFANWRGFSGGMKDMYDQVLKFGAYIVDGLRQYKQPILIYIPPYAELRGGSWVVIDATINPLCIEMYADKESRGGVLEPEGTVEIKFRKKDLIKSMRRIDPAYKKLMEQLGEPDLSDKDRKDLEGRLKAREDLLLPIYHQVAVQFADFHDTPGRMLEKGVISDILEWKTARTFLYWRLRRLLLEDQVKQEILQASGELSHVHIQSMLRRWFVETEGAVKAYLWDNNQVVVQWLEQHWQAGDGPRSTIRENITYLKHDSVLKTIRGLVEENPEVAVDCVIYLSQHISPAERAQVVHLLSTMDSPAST
As to the kind of experiment: ACC2 assay, spectrophotometric 384 well assay (NADH-linked, coupled lactate dehydrogenase/pyruvate kinase). It counts as biochemical. Particulars: ACC2 assay, hACC2 construct lacking 128 N-terminal amino acids, 25° C., 340 nm; read-out: IC50. Here is the method:
Spectrophotometric 384 Well Assay
Malonyl CoA formation by acetyl CoA carboxylases is stoichometrically linked to the consumption of ATP. ACC2 activity is measured in a NADH-linked kinetic method measuring ADP generated during the ACC reaction using a coupled lactate dehydrogenase/pyruvate kinase reaction.
For biological testing, a human ACC2 construct which lacks the 128 amino acids at the N-terminus for increased solubility (nt 385-6966 in Genbank entry AJ575592) is cloned. The protein is then expressed in insect cells using a baculoviral expression system. Protein purification is performed by anion exchange.
All compounds are dissolved in dimethyl sulfoxide (DMSO) to a concentration of 10 mM.
Assay reactions are then carried out in 384-well plates, with hACC2 in an appropriate dilution and at final assay concentrations (f.c.) of 100 mM Tris (pH 7.5), 10 mM trisodium citrate, 25 mM KHCO3, 10 mM MgCl2, 0.5 mg/mL BSA, 3.75 mM reduced L-glutathione, 15 U/mL lactate dehydrogenase, 0.5 mM phosphoenolpyruvate, 15 U/mL pyruvate kinase, compounds at different concentrations at final DMSO concentrations of 1%.
The enzymatic reaction is then started by addition of a mixture of NADH, acetyl Coenzyme A (both 200 μM f.c.) and ATP (500 uM f.c.). The decrease of the optical density (slope S) is then determined at 25° C. at a wavelength of 340 nm over 15 minutes in a spectrophotometric reader.
Each assay microtiter plate contains wells with vehicle instead of compound as controls for the non-inhibited enzyme (100% CTL; ‘HIGH’) and wells without acetyl-CoA as controls for non-specific NADH degradation (0% CTL; ‘LOW’).
The slope S is used for calculation of % CTL=(S(compound)−S('LOW'))/(S('HIGH')−S('LOW'))*100. Compounds will give values between 100% CTL (no inhibition) and 0% CTL (complete inhibition).
For IC50 value determination, the sample slope in the presence of the test compound after subtraction of the low controls (S(compound)−S('LOW')) are used.
An IC50 value is derived from the compound slopes at different dosages after subtraction of the low controls (S(compound)−S('LOW')) by non-linear regression curve fitting (equation y=(A+((B−A)/(1+((C/x)^D))))).
In the case of `CC(C)COc1ccc(N2CCC(c3ccc([C@H](C)NC(=O)N(C)C)cc3)CC2)cc1` [Example 1.122], the concentration for half-maximal inhibition (IC50) stood at 120 nM. Next, `CCCOc1ccc(N2CCC(c3ccc([C@H](C)NC(=O)N(C)C)cc3)CC2)c(C#N)c1` [Example 1.123]: 70 nM; `CCCOc1ccc(N2CCC(c3ccc([C@H](C)NC(=O)N(C)C)cc3)CC2)c(OC)c1` [Example 1.124]: 180 nM; `C[C@H](NC(=O)N(C)C)c1ccc(C2CCN(c3ccc(OC4CCCC4)cc3)CC2)cc1` [Example 1.125]: 100 nM. For `CC(C)COc1ccc(N2CCC(c3ccc([C@H](C)NC(=O)N(C)C)cc3)CC2)nc1` [Example 1.126], the half-inhibitory concentration (IC50) was 230 nM. In the case of `CC(C)Oc1ccc(N2CCC(c3ccc([C@H](C)NC(=O)N(C)C)cc3)CC2)cc1` [Example 1.127] it was 330 nM; in that of `CC(C)Oc1cc(N2CCC(c3ccc([C@H](C)NC(=O)N(C)C)cc3)CC2)ccn1` [Example 1.128], 120 nM. In the case of `CCOc1ccc(N2CCC(c3ccc([C@H](C)NC(=O)N(C)C)cc3)CC2)c(OCC)c1` [Example 1.129] it was 3500 nM.

Regarding `CCC(C)Oc1ccc(N2CCC(c3ccc([C@H](C)NC(=O)OC)cc3)CC2)cc1` (stereo partly drawn) [Example 1.130], the IC50 is 80 nM. Next, `CCCOc1ccc(N2CCC(c3ccc([C@H](C)NC(=O)OC)cc3)CC2)c(C#N)c1` [Example 1.131]: 190 nM. As to `CCCOc1ccc(N2CCC(c3ccc([C@H](C)NC(=O)OC)cc3)CC2)c(OC)c1` [Example 1.132], the half-inhibitory concentration (IC50) worked out at 840 nM.

Consider `COC(=O)N[C@@H](C)c1ccc(C2CCN(c3ccc(OC4CCCC4)cc3)CC2)cc1` [Example 1.133], for which the IC50 was found to be 130 nM. In the case of `COC(=O)N[C@@H](C)c1ccc(C2CCN(c3ccc(OCC(C)C)cn3)CC2)cc1` [Example 1.134] it was 280 nM; in that of `COC(=O)N[C@@H](C)c1ccc(C2CCN(c3ccc(OC(C)C)cc3)CC2)cc1` [Example 1.135], 340 nM. For `COC(=O)N[C@@H](C)c1ccc(C2CCN(c3ccnc(OC(C)C)c3)CC2)cc1` [Example 1.136], the IC50 stood at 500 nM. For the compound `CCOc1ccc(N2CCC(c3ccc([C@H](C)NC(=O)OC)cc3)CC2)c(OCC)c1` [Example 1.137], the IC50 worked out at 16000 nM. Next, `C[C@H](NC(=O)N(C)C)c1ccc(C2CCN(c3ccnc(Oc4ccccc4)c3)CC2)cc1` [Example 1.138]: 160 nM; `C[C@H](NC(=O)C1CC1)c1ccc(C2CCN(c3ccc(OCC4CC4(F)F)cc3)CC2)cc1` (stereo partly drawn) [Example 1.139]: 70 nM; `C[C@H](NC(=O)N(C)C)c1ccc(C2CCN(c3ccc(OCC4CC4(F)F)cc3)CC2)cc1` (stereo partly drawn) [Example 1.140]: 90 nM.

In the case of `C[C@H](NC(=O)C1CC1)c1ccc(C2CCN(c3ccc(OCC4CCC4)cc3)CC2)cc1` [Example 1.141], the IC50 turned out to be 320 nM.

Regarding `C[C@H](NC(=O)N(C)C)c1ccc(C2CCN(c3ccc(OCC4CCC4)cc3)CC2)cc1` [Example 1.142], the IC50 was 60 nM.

With `C[C@H](NC(=O)C1CC1)c1ccc(C2CCN(c3ccc(OCCC4CC4)cc3)CC2)cc1` [Example 1.143], the IC50 turned out to be 120 nM. Next, `C[C@H](NC(=O)N(C)C)c1ccc(C2CCN(c3ccc(OCCC4CC4)cc3)CC2)cc1` [Example 1.144]: 60 nM; `CCCOc1ccc(N2CCC(c3ccc([C@H](C)NC(=O)CC)cc3)CC2)cc1` [Example 1.145]: 140 nM; `CCC(=O)N[C@@H](C)c1ccc(C2CCN(c3ccc4c(c3)OCCO4)CC2)cc1` [Example 1.146]: 1100 nM. In the case of `CCCOc1ccc(N2CCC(c3ccc([C@H](C)NC(=O)CC)cc3)CC2)c(OC)c1` [Example 1.147] it was 490 nM; in that of `CCC(=O)N[C@@H](C)c1ccc(C2CCN(c3ccc(OCC4CC4)cc3F)CC2)cc1` [Example 1.148], 700 nM; in that of `CCC(=O)N[C@@H](C)c1ccc(C2CCN(c3ccc(OCC(C)C)cc3)CC2)cc1` [Example 1.149], 140 nM. On to `CCC(=O)N[C@@H](C)c1ccc(C2CCN(c3ccc(OC4CC4)cc3)CC2)cc1` [Example 1.151], for which the IC50 amounted to 110 nM. In the case of `CCC(=O)N[C@@H](C)c1ccc(C2CCN(c3ccc(OCC4CC4(F)F)cc3)CC2)cc1` (stereo partly drawn) [Example 1.152] it was 80 nM; in that of `CCC(=O)N[C@@H](C)c1ccc(C2CCN(c3ccnc(Oc4ccccc4)c3)CC2)cc1` [Example 1.153], 520 nM; in that of `CCOc1ccc(N2CCC(c3ccc([C@H](C)NC(=O)CC)cc3)CC2)c(C#N)c1` [Example 1.154], 300 nM. Next, `CC(=O)N[C@@H](C)c1ccc(C2CCN(c3ccc(F)c(C)c3)CC2)cc1` [Example 1.155]: 410 nM. Turning to `CC(=O)N[C@@H](C)c1ccc(C2CCN(c3ccc(Cl)c(C)c3)CC2)cc1` [Example 1.156], the IC50 worked out at 600 nM. Next, `COc1ccc(N2CCC(c3ccc([C@H](C)NC(C)=O)cc3)CC2)cc1F` [Example 1.157]: 580 nM.

Turning to `CC(=O)N[C@@H](C)c1ccc(C2CCN(c3ccc(F)c(C#N)c3)CC2)cc1` [Example 1.159], the IC50 was 2700 nM. On to `COc1ccc(N2CCC(c3ccc([C@H](C)NC(C)=O)cc3)CC2)cc1C` [Example 1.160], for which the IC50 is 2100 nM. In the case of `CC(=O)N[C@@H](C)c1ccc(C2CCN(c3ccc(Cl)c(F)c3)CC2)cc1` [Example 1.161] it was 640 nM; in that of `COc1cc(N2CCC(c3ccc([C@H](C)NC(C)=O)cc3)CC2)ccc1Cl` [Example 1.162], 3100 nM; in that of `CC(=O)N[C@@H](C)c1ccc(C2CCN(c3ccc(F)c(F)c3)CC2)cc1` [Example 1.163], 670 nM.

For the compound `CC(=O)N[C@@H](C)c1ccc(C2CCN(c3ccc(OCC(F)F)cc3)CC2)cc1` [Example 1.164], the IC50 came to 770 nM. Next, `CC(=O)N[C@@H](C)c1ccc(C2CCN(c3ccc(OCCC(F)(F)F)cc3)CC2)cc1` [Example 1.165]: 100 nM; `COc1ccc(N2CCC(c3ccc([C@H](C)NC(C)=O)cc3)CC2)cc1C1CC1` [Example 1.166]: 4000 nM; `CC(=O)N[C@@H](C)c1ccc(C2CCN(c3ccc(OCC4CCCO4)cc3)CC2)cc1` (stereo partly drawn) [Example 1.167]: 910 nM. In the case of `CCOc1ccc(N2CCC(c3ccc([C@H](C)NC(=O)CC)cc3)CC2)c(F)c1` [Example 1.168] it was 500 nM; in that of `CCC(=O)N[C@@H](C)c1ccc(C2CCN(c3ccnc(Oc4cncnc4)c3)CC2)cc1` [Example 1.169], 1700 nM; in that of `CCOc1ccc(N2CCC(c3ccc([C@H](C)NC(=O)OC)cc3)CC2)c(F)c1` [Example 1.170], 400 nM.

For `CC(=O)N[C@@H](C)c1ccc(C2CCN(c3ccc(Cl)cc3C#N)CC2)cc1` [Example 1.171], the IC50 is 16300 nM. For the compound `CC(=O)N[C@@H](C)c1ccc(C2CCN(c3ccc(OC4CCCCC4)nc3)CC2)cc1` [Example 1.172], the IC50 was 250 nM. As for `CC(=O)N[C@@H](C)c1ccc(C2CCN(c3cnc(C4CC4)cn3)CC2)cc1` [Example 1.173], the IC50 is 820 nM.

Turning to `CC(=O)N[C@@H](C)c1ccc(C2CCN(c3ccc(C4CC4)nn3)CC2)cc1` [Example 1.174], the IC50 was found to be 7500 nM.

The IC50 is the concentration needed to halve the response being measured.
